According to publication PMC6522510 (Nature Communications, 2019):
Structures can show the parent of a compound that is named as a salt. Where two headings read alike, the source gives them in different places. Square brackets hold non-standard residues; d marks the D form. Peptide text beside a SMILES is read from it. * marks the point of attachment. Sta = CC(C)C[C@H](N)[C@@H](O)CC(=O)O; Isovaleryl = CC(C)CC(=O)*

Columns and labels:
Set-up in all cases: species or system AML cell lines (8); Primary HTS, single concentration about 10 uM, Cell Titer Glo viability; log10 luminescence, per cent inhibition relative to cycloheximide control
Settings in all cases: 72 h, relative to cycloheximide control, log10 luminescence, inhibitor
[1] = system: MOLM-13
[2] = system: CMK
[3] = system: MV4-11
[4] = system: ML-2
[5] = system: CHRF288-11
[6] = system: M07e
[7] = system: U937
[8] = system: CMS

Row | SMILES | MOLM-13 %inh ([1]; MOLM-13 %inh, 10 µM) | CMK %inh ([2]; CMK %inh, 10 µM) | MV4-11 %inh ([3]; MV4-11 %inh, 10 µM) | ML-2 %inh ([4]; ML-2 %inh, 10 µM) | CHRF288-11 %inh ([5]; CHRF288-11 %inh, 10 µM) | M07e %inh ([6]; M07e %inh, 10 µM) | U937 %inh ([7]; U937 %inh, 10 µM) | CMS %inh ([8]; CMS %inh, 10 µM) | MOLM-13 %inh [1] | CMK %inh [2] | MV4-11 %inh [3] | ML-2 %inh [4] | CHRF288-11 %inh [5] | M07e %inh [6] | U937 %inh [7] | CMS %inh [8]
1 | CC(C)CC(=O)N[C@H](C(=O)N[C@H](C(=O)N[C@@H](CC(C)C)[C@@H](O)CC(=O)N[C@@H](C)C(=O)N[C@@H](CC(C)C)[C@@H](O)CC(=O)O)C(C)C)C(C)C [SJ000287258-3, PEPSTATIN A] (Isovaleryl-VV[Sta]A[Sta]-OH) | -0.1246% | -4.878% | 0.8934% | 1.096% | 20.49% | 1.266% | 4.393% | 1.08% | – | – | – | – | – | – | – | –
2 | CC(C)CC(=O)N[C@H](C(=O)N[C@H](C(=O)N[C@@H](CC(C)C)[C@@H](O)CC(=O)N[C@@H](C)C(=O)N[C@@H](CC(C)C)[C@@H](O)CC(=O)O)C(C)C)C(C)C [SJ000287258-4, PEPSTATIN A] (Isovaleryl-VV[Sta]A[Sta]-OH) | 0.9923% | -1.598% | 2.97% | -2.254% | -1.709% | -0.4461% | -1.362% | 2.288% | – | – | – | – | – | – | – | –
3 | C=CC1=C(C(=O)O)N2C(=O)[C@@H](NC(=O)/C(=N\OCC(=O)O)c3csc(N)n3)[C@H]2SC1 [SJ000287284-2, CEFIXIME] | – | – | – | – | – | – | – | – | 0.1743% | 0.8991% | -3.36% | -0.1874% | -7.075% | -4.21% | 0.1666% | -2.931%
4 | CN(CCCCCCCCCCN(C)C(=O)Oc1cccc([N+](C)(C)C)c1)C(=O)Oc1cccc([N+](C)(C)C)c1 [SJ000287334-2, DEMECARIUM BROMIDE] | 14.75% | 0.3844% | 26.64% | 3.342% | 5.292% | 6.779% | 24.11% | 0.249% | – | – | – | – | – | – | – | –
5 | CN(CCCCCCCCCCN(C)C(=O)Oc1cccc([N+](C)(C)C)c1)C(=O)Oc1cccc([N+](C)(C)C)c1 [SJ000287334-3, DEMECARIUM BROMIDE] | 13.7% | 4.147% | 33.39% | 2.323% | -4.258% | 11.04% | 32.99% | 4.988% | – | – | – | – | – | – | – | –
6 | CNCC(O)c1ccc(OC(=O)C(C)(C)C)c(OC(=O)C(C)(C)C)c1 (stereo not drawn) [SJ000287343-2, DIPIVEFRIN HYDROCHLORIDE] | – | – | – | – | – | – | – | – | 33.32% | -4.432% | 8.373% | 3.768% | 9.226% | 1.591% | 7.06% | -0.6385%
7 | COCCCC/C(=N\OCCN)c1ccc(C(F)(F)F)cc1 [SJ000287487-5, FLUVOXAMINE MALEATE] | – | – | – | – | – | – | – | – | 5.945% | -1.719% | 0.9693% | 4.445% | 7.313% | 1.409% | 7.709% | -2.805%
8 | COC(=O)C1=C(C)NC(C)=C(C(=O)OC(C)C)C1c1cccc2nonc12 (stereo not drawn) [SJ000287510-2, ISRADIPINE] | – | – | – | – | – | – | – | – | 6.188% | -2.127% | 2.426% | -1.199% | 8.592% | 0.2973% | 3.366% | -2.562%
9 | Cc1cccc(C)c1NC(=O)C(C)N (stereo not drawn) [SJ000287515-4, TOCAINIDE HYDROCHLORIDE] | – | – | – | – | – | – | – | – | 2.63% | -3.02% | -0.903% | 2.731% | -1.466% | 1.522% | -0.5289% | -0.9728%
